Experiments:
[1] = system: Staphylococcus aureus ATCC 6538P; experiment: Minimum inhibitory concentration (Table I); type: cell-based
Text: (§1) Comparative data similarly obtained by using mitomycin A, mitomycin C and 7-N-phenyl mitomycin C are also shown in this table

[2] = system: Shigella sonnei ATCC 9290; experiment: Minimum inhibitory concentration (Table I); type: cell-based
Text: as §1

[3] = system: Bacillus subtilis ATCC 10707; experiment: Minimum inhibitory concentration (Table I); type: cell-based
Text: as §1

[4] = system: Klebsiella pneumoniae ATCC 10031; experiment: Minimum inhibitory concentration (Table I); type: cell-based
Text: as §1

[5] = Acute toxicity determination, intraperitoneal; design: species or system Mice (dd-strain); conditions: mouse, in vivo, ip; dd mice, single i.p., 14 days, Behrens-Karber
Description: (§2) The following treatment was performed to make these compounds water-soluble for use in the experiments. A test compound was dissolved in ethanol (about 1000 times by weight) HCO-60, a commercially available surfactant was added in amounts of about 3 times by weight. The mixture was well stirred to dissolve the HCO-60. Ethanol was removed from the solution under reduced pressure by using a rotary evaporator. After this, a test solution was prepared by adding a suitable amount of a physiological saline solution with agitation.
Mice [dd-strain; weight 20±1 g; each group consisted of 5 mice] were used for this experiment. An individual test solution was administered to each mouse by intraperitoneal injection. The test solutions (each 0.5 ml) were prepared by stepwise dilution.

[6] = Number of leucocytes in peripheral blood of Sarcoma-180 bearing mice (Example IV); type: in vivo, dd-strain mice; conditions: 4 days after inoculation
Description: as §2
(§3) Sarcoma 180 cells were inoculated intraperitoneally into dd-strain mice. After 7 days following tumor implantation, ascites tumor cells were obtained from the mice. The cells were washed and a tumor cell suspension containing 5×10^7 cells per ml was prepared with physiological saline solution. 0.1 ml of the thus-prepared suspension containing 5×10^6 cells was inoculated into the left inguinal region of each of the test mice (dd-strain; weight 19±1 g; divided into groups, each group consisting of 5 mice). After 24 hours following the inoculation, the test compounds were administered to the mice individually and intraperitoneally. After 4 days following the inoculation, the peripherical blood of the treated mice was obtained by the puncture of the orbital vein. The number of the leucocytes in the peripheral blood was measured by using Toa Microcell Counter CC-108 (a commercial product of Toa Medical Electronics Co., Ltd., Japan). In order to evaluate the antitumor effects, the tumor was removed 7 days after the inoculation and weighed. Its weight was compared with the average weight of the tumors of the control group (untreated) to give the weight ratios (T/C) shown in Table 5.

P-388 cells [7] = experiment: Antitumor activity, P-388 leukemia intraperitoneally inoculated, compound i.p. (Example II); type: in vivo, CDF1 mice
Description: as §2
Seven-day-old leukemia cells obtained from the ascites of DBA/2 mice inoculated intraperitoneally with 10^6 P-388 cells were used. A cell suspension containing 5×10^6 cells per ml was prepared by using a sterilized physiological saline solution. The test mice (CDF1 mice, 20-25 g) were inoculated with 0.2 ml of the cell suspension containing 1×10^6 cells intraperitoneally. After 24 hours, the mice were divided into groups (each group consisting of 5 mice) and the test solutions were administered intraperitoneally once only. […] In order to evaluate the effects of the test samples, the average survival days were calculated 30 and 60 days after tumor implantation and compared with those of the control group (untreated group). Antitumor activities of the test compounds are indicated by ILS % (increase in life span%) on the basis of the control group.

Solubility in water = type: physicochemical
Sarcoma 180 cells = experiment: Effect on Sarcoma-180, tumor weight ratio (Example IV); type: in vivo, dd-strain mice; conditions: tumor weighed 7 days after inoculation
Description: as §2, §3

P-388 cells [8] = experiment: Antitumor effect, P-388 cells intravenously inoculated, compound i.v. (Example III); type: in vivo, Mice; conditions: 30 days
Description: as §2
Mice were inoculated intravenously with P-388 cells (10^6 /0.2 ml) in a similar manner to that described above in Example II. […] Untreated mice and mice administered with Tween 80 were used for control purpose.

[9] = 5 mg/kg i.p. once, determined after 30 days
[10] = 5 mg/kg i.p. once, determined after 60 days
[11] = 10 mg/kg i.p. once, determined after 30 days
[12] = 10 mg/kg i.p. once, determined after 60 days
[13] = 20 mg/kg i.p. once, determined after 30 days
[14] = 20 mg/kg i.p. once, determined after 60 days
[15] = 30 mg/kg i.p. once, determined after 30 days
[16] = 30 mg/kg i.p. once, determined after 60 days

COC1=C(C)C(=O)C2=C(C1=O)[C@@H](COC(N)=O)[C@@]1(OC)[C@H]3N[C@H]3CN21 [Compound I, mitomycin A]
minimum inhibitory concentration [1]: < 0.025 | minimum inhibitory concentration [2]: 0.098 | minimum inhibitory concentration [3]: < 0.025 | minimum inhibitory concentration [4]: < 0.025

CO[C@@]12[C@H](COC(N)=O)C3=C(C(=O)C(C)=C(Nc4ccc(O)cc4)C3=O)N1C[C@@H]1N[C@@H]12 [Compound IV, 7-N-(p-hydroxyphenyl)-mitomycin C]
LD50 at 336 h [5]: 34 mg/kg | Average number of leucocytes ([6]; 5 mg/kg i.p.): 63.2 ± 10.2 × 10^2 /mm^3 | Average number of leucocytes ([6]; 10 mg/kg i.p.): 64.0 ± 24.6 × 10^2 /mm^3 | Average number of leucocytes ([6]; 20 mg/kg i.p.): 39.0 ± 5.6 × 10^2 /mm^3 | Average number of leucocytes ([6]; 40 mg/kg i.p.): 40.0 ± 15.3 × 10^2 /mm^3 | minimum inhibitory concentration [1]: 0.196 | minimum inhibitory concentration [2]: 6.25 | minimum inhibitory concentration [3]: 0.049 | minimum inhibitory concentration [4]: 0.391 | Average survival days (P-388 cells [7]; [9]): 20.4 ± 5.2 days | ILS % (increase in life span) (P-388 cells [7]; [9]): 108% | Number of survivors (P-388 cells [7]; [9]): 1/5 | Average survival days (P-388 cells [7]; [10]): 20.4 ± 5.2 days | ILS % (increase in life span) (P-388 cells [7]; [10]): 108% | Number of survivors (P-388 cells [7]; [10]): 0/5 | Average survival days (P-388 cells [7]; [11]): 23.0 ± 4.5 days | ILS % (increase in life span) (P-388 cells [7]; [11]): 135% | Number of survivors (P-388 cells [7]; [11]): 1/5 | Average survival days (P-388 cells [7]; [12]): 23.4 ± 5.1 days | ILS % (increase in life span) (P-388 cells [7]; [12]): 136% | Number of survivors (P-388 cells [7]; [12]): 0/5 | Average survival days (P-388 cells [7]; [13]): 28.4 ± 3.2 days | ILS % (increase in life span) (P-388 cells [7]; [13]): 190% | Number of survivors (P-388 cells [7]; [13]): 4/5 | Average survival days (P-388 cells [7]; [14]): 47.6 ± 15.8 days | ILS % (increase in life span) (P-388 cells [7]; [14]): 386% | Number of survivors (P-388 cells [7]; [14]): 3/5 | Average survival days (P-388 cells [7]; [15]): 15.4 ± 0.4 days | ILS % (increase in life span) (P-388 cells [7]; [15]): 57% | Number of survivors (P-388 cells [7]; [15]): 1/5 | Average survival days (P-388 cells [7]; [16]): 21.4 ± 20.7 days | ILS % (increase in life span) (P-388 cells [7]; [16]): 118% | Number of survivors (P-388 cells [7]; [16]): 1/5 | solubility in water (Solubility in water): low solubility in water | T/C (tumor weight ratio) (Sarcoma 180 cells; 5 mg/kg i.p.): 0.83 | T/C (tumor weight ratio) (Sarcoma 180 cells; 10 mg/kg i.p.): 0.66 | T/C (tumor weight ratio) (Sarcoma 180 cells; 20 mg/kg i.p.): 0.46 | T/C (tumor weight ratio) (Sarcoma 180 cells; 40 mg/kg i.p.): 0.27 | Average survival days (P-388 cells [8]; 5 mg/kg i.v. once): 11.4 ± 1.4 days | ILS % (P-388 cells [8]; 5 mg/kg i.v. once): 33% | Average survival days (P-388 cells [8]; 10 mg/kg i.v. once): 14.0 ± 0 days | ILS % (P-388 cells [8]; 10 mg/kg i.v. once): 63% | Average survival days (P-388 cells [8]; 15 mg/kg i.v. once): 16.6 ± 1.5 days | ILS % (P-388 cells [8]; 15 mg/kg i.v. once): 93% | Average survival days (P-388 cells [8]; 20 mg/kg i.v. once): 17.6 ± 4.1 days | ILS % (P-388 cells [8]; 20 mg/kg i.v. once): 105% | Average survival days (P-388 cells [8]; 30 mg/kg i.v. once): 7.6 ± 0.8 days | ILS % (P-388 cells [8]; 30 mg/kg i.v. once): -12%

Reference: US4231936A, “Mitomycin C derivatives” (priority 1977, dated 1980)
